Assay results published in BindingDB's records for doi:10.1016/j.ejmech.2019.05.053 (East China University of Science and Technology, 2019).

Test: Reversal of P-gp-mediated multidrug resistance in human MCF7/Dox cells assessed as potentiation of doxorubicin-induced cytotoxicity by measuring doxorubicin IC50 at 12.5 uM after 48 hrs by MTT assay (Rvb = 51.19 +/- 0.95 microM)
In the case of COc1cc(OC)c(C(=O)/C=C/c2cccc(N3CCOCC3)c2)c(O)c1CC=C(C)C, the IC50 is reported as 31.6 µM.
COc1ccc(/C=C/C(=O)c2c(OC)cc(OC)c(CC=C(C)C)c2O)cc1 showed an IC50 of 20.7 µM.
In the case of COc1cc(OC)c(C(=O)/C=C/c2ccc(Cl)cc2)c(O)c1CC=C(C)C, the IC50 is reported as 21.8 µM.
Work on COc1cc(OC)c(C(=O)/C=C/c2ccc(N(C)C)cc2)c(O)c1CC=C(C)C yielded an IC50 of 17.4 µM.
For COc1cc(OC)c(C(=O)/C=C/c2cccc(F)c2)c(O)c1CC=C(C)C, the IC50 was 12.6 µM.
Work on COc1cc(OC)c(C(=O)/C=C/c2cccc(C(F)(F)F)c2)c(O)c1CC=C(C)C yielded an IC50 of 6.26 µM.
For COc1cc(OC)c(C(=O)/C=C/c2ccc(OC)c(OC)c2OC)c(O)c1CC=C(C)C, the IC50 was 27.5 µM.
In the case of COc1cc(OC)c(C(=O)/C=C/c2cccc(N3CCN(C(=O)OC(C)(C)C)CC3)c2)c(O)c1CC=C(C)C, the IC50 is reported as 20.1 µM.
In the case of COc1cc(OC)c(C(=O)/C=C/c2ccc(N3CCN(C(=O)OC(C)(C)C)CC3)cc2)c(O)c1CC=C(C)C, the IC50 is reported as 52.2 µM.
COc1cc(O)c(C(=O)/C=C/c2cccc(N3CCN(C)CC3)c2)c(OC)c1 gave an IC50 of 18 µM.
For COc1cc(O)c(C(=O)/C=C/c2ccc(N3CCN(C(=O)OC(C)(C)C)CC3)cc2)c(OC)c1, the IC50 was 59.2 µM.
Work on COc1cc(O)c(C(=O)/C=C/c2cccc(N3CCN(C(=O)c4ccc(OC)c(OC)c4)CC3)c2)c(OC)c1 yielded an IC50 of 42.3 µM.
Work on COc1ccc(C(=O)/C=C/c2cccc(N3CCNCC3)c2)c(OC)c1 yielded an IC50 of 4.9 µM.
CCc1c(OC)cc(OC)c(C(=O)/C=C/c2cccc(N3CCNCC3)c2)c1O showed an IC50 of 4.69 µM.
With CCCCc1c(OC)cc(OC)c(C(=O)/C=C/c2cccc(N3CCNCC3)c2)c1O the IC50 was 3.57 µM.
In the case of CCCCCc1c(OC)cc(OC)c(C(=O)/C=C/c2cccc(N3CCNCC3)c2)c1O, the IC50 is reported as 23.6 µM.
With COc1cccc(/C=C/C(=O)c2c(OC)cc(OC)c(CC=C(C)C)c2O)c1 the IC50 was 7.86 µM.
COc1cc(OC)c(C(=O)/C=C/c2cccc(Cl)c2)c(O)c1CC=C(C)C gave an IC50 of 9.39 µM.
With COc1cc(OC)c(C(=O)/C=C/c2cccc(N3CCNCC3)c2)c(O)c1CC=C(C)C the IC50 was 1.02 µM.
In the case of COc1cc(O)c(C(=O)/C=C/c2cccc(N3CCNCC3)c2)c(OC)c1, the IC50 is reported as 2.63 µM.
For COc1cc(O)c(C(=O)/C=C/c2cccc(N3CCOCC3)c2)c(OC)c1, the IC50 was 18.8 µM.
In the case of CCCc1c(OC)cc(OC)c(C(=O)/C=C/c2cccc(N3CCNCC3)c2)c1O, the IC50 is reported as 5.12 µM.
For COc1c(C)c(O)c(C)c(O)c1C(=O)/C=C/c1ccccc1 [CHEBI:70658], the IC50 was 24.7 µM.
